Source: the supplement of paper PMC7295968
± gives the standard deviation of the averaged measurements.

Key:
[1] = test system: THP-1 (vitamin D3 differentiated); test: EC50 of beta-agonist gene-signature score cos_weight_AC (signature02); details: 4 h
Protocol: (§1)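 Vitamin-D3-differentiated THP-1 cells were treated 4 h with compounds (1:10 serial dilutions, top 100 uM). Two 8-gene QuantiGene Plex signatures were read out as TBP-normalised rscores; the cos_weight_AC signature score (% of 10 uM isoproterenol active control) was fitted by 4PL/nonparametric fit to give EC50, with constant fits assigned one log unit outside the tested range. cAMP EC50s come from a 20 min HTRF assay with IBMX at 37 °C, fitted with the same algorithm.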

[2] = test system: THP-1 (vitamin D3 differentiated); test: cAMP EC50 (HTRF); higher = lower potency; details: 20 min
Protocol: as §1

[3] = test system: THP-1 (vitamin D3 differentiated); test: EC50 of beta-agonist gene-signature score cos_weight_AC (signature01); details: 4 h
Protocol: as §1

Row | EC50 [1] [nM] | cAMP EC50 [2] [nM] | EC50 [3] [nM] | SMILES
1 | 230 | 349 ± 260 | 216 | CC(C)(C)NCC(O)c1cc(O)cc(O)c1 (centres undefined) [Terbutaline]
2 | 0.127 |  | 2.88 | COc1ccc(CC(C)(C)NC[C@H](O)c2cc(O)cc3c2OCC(=O)N3)cc1 [Olodaterol]
3 | 294 | 624 ± 160 | 295 | CC(NCCc1ccc(O)cc1)C(O)c1ccc(O)cc1 (centres undefined) [Ritodrine]
4 | 64.6 | 10.6 ± 9.1 | 98.5 | CC(C)(C)NCC(O)c1ccc(O)c(CO)c1 (centres undefined) [Salbutamol]
5 |  |  | 0.237 | COc1cc(C[C@@H]2NCCc3cc(O)c(O)cc32)cc(OC)c1OC [Tretoquinol]
6 | 0.703 |  |  | CCC(NC(C)C)C(O)c1ccc(O)c2[nH]c(=O)ccc12 (centres undefined) [Procaterol]
7 | 0.567 | < 0.01 | 3.48 | CC(C)(Cc1ccccc1)NCC(O)c1ccc(O)c(NS(C)(=O)=O)c1 (centres undefined) [Zinterol]
8 | 5.86 | < 0.01 | 5.65 | OCc1cc([C@@H](O)CNCCCCCCOCCOCc2c(Cl)cccc2Cl)ccc1O [Vilanterol]

The next lines start with the molecule.

Row | SMILES | EC50 [1] [nM] | cAMP EC50 [2] [nM] | EC50 [3] [nM]
9 | CC(C)(C)NCC(O)c1ccccc1Cl (centres undefined) [Tulobuterol] | 215 | 32.1 ± 20 | 
10 | NC[C@H](O)c1ccc(O)c(O)c1 [Norepinephrine] | 6.13 | 0.42 ± 0.14 | 1.46
11 | COc1cc(NC(=O)CCN2CCC(OC(=O)Nc3ccccc3-c3ccccc3)CC2)c(Cl)cc1CNC[C@H](O)c1ccc(O)c2[nH]c(=O)ccc12 [Batefenterol] |  |  | 0.265
12 | O=c1ccc2c([C@@H](O)CNCCCCCCOCC(F)(F)c3ccccc3)ccc(O)c2[nH]1 [Abediterol] | < 0.01 | < 0.01 | < 0.01
13 | COc1ccc(CC(C)NCC(O)c2ccc(O)c(NC=O)c2)cc1 (centres undefined) [Formoterol] | 0.108 | 0.0101 | 0.254
14 | CC(Cc1ccc(OCC(=O)O)cc1)NCC(O)c1cccc(Cl)c1 (centres undefined) | 167 | 50.1 ± 31 | 421
15 | CNC[C@H](O)c1ccc(O)c(O)c1 [Adrenaline] | 68.1 |  | 64.7
16 | CNCCc1cnc[nH]1 [N-alpha-methylhistamine] | 234 | 180 ± 26 | 248
17 | Cn1cc(C(F)(F)F)nc1-c1ccc(OCC(O)CNCCOc2ccc(O)c(C(N)=O)c2)cc1 (centres undefined) | > 100000 | > 100000 | > 100000
18 | CC(Cc1ccc(O)cc1)NCC(O)c1cc(O)cc(O)c1 (centres undefined) [Fenoterol] | 3.65 | 1.75 ± 1.5 | 8.21
19 | CC(CCc1ccc(O)cc1)NCCc1ccc(O)c(O)c1 (centres undefined) [Dobutamine] |  | 1.38 ± 0.91 | 8.15
20 | CCC(NC(C)C)C(O)c1ccc(O)c(O)c1 (centres undefined) [Isoetharine] | 48.4 |  | 32.1
21 | CC(C)NCC(O)c1cc(O)cc(O)c1 (centres undefined) [Metaproterenol] |  | 5.17 ± 2.3 | 21.6
22 | C=C[C@@]1(C)CC(=O)[C@]2(O)[C@@]3(C)[C@@H](O)CCC(C)(C)[C@@H]3[C@H](O)[C@H](OC(C)=O)[C@@]2(C)O1 [Forskolin] | 2310 |  | 2770
23 | Oc1ccc(CCNCCCCCCNCCc2ccccc2)cc1O [Dopexamine] |  | 13900 ± 12000 | 
